Experimental findings from US20060190186A1, “Viral polymerase and modulation thereof” (Melbourne Health, priority 2003, published 2006) are described below.

Experiment [1] deals with recombinant HBV encoding the mutant rtS85A. The experiment in a line: Antiviral testing: HBV replicative intermediates by Southern blot in Huh7 cells transfected with HBV plasmid encoding rtS85A. The format is cell-based, hepatitis B virus. Conditions: for IC50: Hepatitis B virus, Huh-7. The source says:
(§1) The plasmid containing 1.3×HBV genome in the vector pBlueBac4.5 was used as the infectious HBV clone. This clone already had the precore mutation at G1896A. The point mutation were created by site directed mutagenesis using the commercial kits according to the manufacturers specifications (QuikChange, Stratagene). A HBV recombinant encoding the reverse transcriptase mutations rtS85A was created. The nucleotide sequence of the plasmid and the point mutations generated by site directed mutagenesis were confirmed by sequencing using the ABI Prism Big Dye Terminator Cycle Sequencing Ready Reaction Kit according to the manufacturer's specifications (Perkin Elmer, Cetus Norwalk, Conn.).
(§2) Huh7 cells were seeded at approximately 20-40% confluency and then were grown for 16-24 hours before transfection. Plasmid DNA containing HBV encoding specific mutations was transfected using Fugene according to the manufacturers protocols.
ADV and LMV were resuspended in sterile water, aliquoted, and frozen at −20° C. to avoid repeated freezing and thawing of the drug. Medium containing ADV or LMV were prepared daily as needed. In experiments in which ADV or LMV treatment was initiated […] transfection, Huh7 cells were exposed to the indicated concentration of ADV or LMV immediately after transfection with the HBV plasmid.
HBV core particles were isolated from the cytoplasmic fraction of Huh7 cells lysis buffer which includes 0.5% w/v NP-40. Cytoplasmic extracts were treated with DNAse, adjusted to 10 mmol/l […] and unprotected DNA was removed by an incubation to 500 µg/ml Proteinase K for 1.5 hours at 37° C. HBV DNA in the samples were then extracted using commercial DNA extraction kits such as Qiagen (DNA extraction) or in-house methods using sequential phenol and chloroform extractions, and the nucleic acids were recovered by ethanol precipitation. […] After southern blot analysis a BioRad Phosphoimager and the Quantity One Analysis software (BioRad, Hecules Calif.) was used to analyze suitable exposures of Southern blots. […]

The test system of experiment [2] is HBV precore mutant (G1896A). As to the kind of experiment: Antiviral testing: HBV replicative intermediates by Southern blot in Huh7 cells transfected with HBV plasmid (precore mutant). The settings on record: Hepatitis B virus, Huh-7. The format is cell-based.
From the text: as §1, §2
ADV and LMV were resuspended in sterile water, aliquoted, and frozen at −20° C. to avoid repeated freezing and thawing of the drug. […]
HBV core particles were isolated from the cytoplasmic fraction of Huh7 cells lysis buffer which includes 0.5% w/v NP-40. […] After southern blot analysis a BioRad Phosphoimager and the Quantity One Analysis software (BioRad, Hecules Calif.) was used to analyze suitable exposures of Southern blots. […]

With `Nc1ncnc2c1ncn2CCOCP(=O)(O)O` [ADV, adefovir], the IC50 in experiment [1] is 5000 to 10000 nM; in experiment [2], 430 nM. Besides, the “sensitivity of recombinant HBV to drug” value in experiment [1] (recombinant HBV encoding the mutant rtS85A) is given as “reduced sensitivity”.

On to `Nc1ccn([C@@H]2CS[C@H](CO)O2)c(=O)n1` [LMV, (−)-β-2′-deoxy-3′-thiacytidine], for which the IC50 in experiment [1] amounted to 10 nM; in experiment [2], 5 nM.

The term IC50 denotes the concentration at which inhibition is half-maximal.
